Columns and labels:
BALB/c mice = experiment: Suppression of prolonged contact hypersensitivity (P-CHS), oxazolone-induced ear swelling; type: in vivo; conditions: for sequence from high to low effectiveness, suppressive effect on P-CHS response (ear swelling): BALB/c mice, oxazolone, topical twice daily, averaged from 2-3 experiments, compared to placebo (100% ear swelling), FIG. 3; for immunosuppressive, e.g. anti-inflammatory properties (efficacy): conclusion from P-CHS in BALB/c mice, topical application
Experimental: Suppression of prolonged contact hypersensitivity (P-CHS) by ethyl imidazole-4-acetate in BALB/c mice.
Ethyl imidazole-4-acetate was dissolved in ethanol/water 1:1 in a concentration of 5%. The topical application of ethanol/water 1:1 alone served as full-response control. Ethanol/water test solutions were topically applied with a pipette in aliquots of 20 μL/ear.
Mice were sensitized with 10 μl 1% oxazolone in acetone on […] in all experiments on the outside of both ears. On day 0 mice were challenged with 10 μl 0.5% oxazolone in acetone on both ears. Repeated elicitations were applied on day 2, 4, 7, 9. Applied oxazolone concentrations in acetone were 0.5%, 0.25%, 0.25%, 0.25%, respectively. From day 1 up to one day before the final day of the experiment, twice-daily doses of test solutions were topically given at approximately 11 AM and […]. Duplicate ear thickness measurements were made on day 0, 1, 3, 5, 8, 10 and 11 prior to any daily topical application.
The use of mice was allowed by the Committee of Experimental Animal handling of the Academic Medical Center Amsterdam. Female BALB/c mice (8-10 weeks of age) were purchased from Charles River (L′Arbresle, France) and kept in light, humidity and temperature-controlled rooms in the animal facility, 1-2 weeks before the experiment. They were fed ad libitum with water and CRM-E food van Special Diets services (SDS, Witham, Essex, UK).
Data points, obtained with test compound administration, were compared to the data, obtained with vehicle (ethanol/water 1:1) administration and were statistically processed using Welch's unpaired t-test.

[1] = system: IL-10 production in whole blood; experiment: Effect of imidazole-derivates on the production of IL-10 in whole blood following LPS stimulation; type: cell-based; conditions: LPS stimulation (10 ng/ml), FIG. 4; for IL-10 production: 10−^4 Mol/l in whole blood
Source text: Effect of imidazole-derivates on the production of IL-10
IL-10 is a cytokine that dims inflammatory immune responses. […] These findings in vitro have larger significance in a complete test system as whole blood, employed here, than in a monoculture test system (FIG. 4).
FIG. 4. Effect of imidazole-derivates on the production of IL-10 in whole blood

mice = conditions: Kammeyer et al. 2004, Norval et al. 1995, Noonan and De Fabo 1992; cited from earlier work

SMILES | sequence from high to low effectiveness, suppressive effect on P-CHS response (ear swelling) (BALB/c mice) | immunosuppressive, e.g. anti-inflammatory properties (efficacy) (BALB/c mice) | IL-10 production, positive control compared with the imidazole-derivates ([1]; whole blood) | IL-10 production [1] | contact hypersensitivity (CHS) response (mice)
C[C@]12C=CC(=O)C=C1CC[C@@H]1[C@@H]2[C@@H](O)C[C@@]2(C)[C@H]1CC[C@]2(O)C(=O)CO [prednisolone] | prednisolone>ethyl imidazole-4-acetate (Et-ImAc) | classical strong suppressant | – | – | –
NCCc1c[nH]cn1 [Histamine] | – | – | stronger effect on IL-10 production than the imidazole-derivates | – | –
O=C(O)c1c[nH]cn1 [ImCOOH, imidazole-4-carboxylic acid] | – | – | – | upregulation of IL-10 | –
O=C([O-])c1c[nH]cn1.[Na+] [imidazole-4-carboxylic acid, imidazole-4-carboxylic acid, sodium salt] | imidazole-4-acetic acid (ImAc)=imidazole-4-carboxylic acid | – | – | – | –
CCOC(=O)Cc1c[nH]cn1 [Et-ImAc, ethyl imidazole-4-acetate] | prednisolone>ethyl imidazole-4-acetate (Et-ImAc)>imidazole-4-acetic acid (ImAc) | stronger than that of ImAc | – | upregulation of IL-10 | –
O=C(O)Cc1c[nH]cn1 [ImAc, Imidazole-4-acetic acid] | ethyl imidazole-4-acetate (Et-ImAc)>imidazole-4-acetic acid (ImAc)=imidazole-4-carboxylic acid | weak to moderate immunosuppressant | – | upregulation of IL-10 | suppress the contact hypersensitivity (CHS) response in mice

— patent US20100197752A1, “UROCANIC ACID DERIVATIVES USEFUL FOR THE TREATMENT OF IMMUNE-RELATED AND INFLAMMATORY DISEASES” (priority 2007, published 2010)
